Results on 55 compounds are retold here after patent US20070112068A1, “Nitrile compound and its use in pest control” (priority 2003, published 2007).

Common to all, as to format: in vivo
One test deals with Blattalla germanica. As to the kind of experiment: Experimental Example 3: treated filter paper with sucrose bait, German cockroach. Conditions: 500 ppm, 0.7 ml on filter paper; two male imagoes; after 6 days. The protocol: A filter paper having a diameter of 5.5 cm was spread on the bottom of a polyethylene cup having a diameter of 5.5 cm and 0.7 ml of the experimental pesticidal solution was added dropwise onto the filter paper. As a bait 30 mg of sucrose was uniformly placed on the filter paper. Into the polyethylene cup, two male Blattalla germanica imagoes were released and the cup was sealed with a lid. After 6 days, the number of surviving Blattalla germanica was examined and the death rate of the pest was calculated.

The test system of test [1] is Blattella germanica. As to the kind of experiment: Experimental Example 14: topical application, Blattella germanica. Conditions: 1 μl of 1% (w/v) acetone solution onto sternum of thorax of female imagoes; after 7 days. The protocol:
1% (w/v) solutions of the present compounds (4), (20), (22), (23), (24), (29), (30), (31), (35), (36), (37), (38), (46), (53), (54), (56), (57), (59), (61), (66), (67), (68), (69), (70), (71), (79), (81), (83), (84), (89), and (90) in acetone were prepared. Onto the sternum of the thorax of female imagoes of Blattella germanica, 1 μl of the acetone solution was added dropwise. The imagoes were transferred to a plastic cup having a diameter of about 9 cm and a height of about 4.5 cm and left together with feed and water at 25° C. After 7 days, the number of surviving Blattella germanica was examined and the death rate of the pest was calculated. 10 imagoes of Blattella germanica were put in a cup and three replicate experiments were performed.

Test [2] deals with Blattella germanica. As to the kind of experiment: Experimental Example 15: treated filter paper in paper box, Blattella germanica. The following applies: 0.1 ml of 2.5% (w/v) acetone solution on filter paper in paper box; after 7 days. Here is the method: (§1) 2.5% (w/v) solutions of the present compounds (23), (24) and (31) in acetone were prepared. 0.1 ml of the solution was added dropwise onto a filter paper with 2 cm×2 cm and then air-dried. This filter paper was attached to the center of the inside bottom of a paper box having 10 cm (width)×2 cm (height)×7 cm (depth) with a two-sided tape. One hole of 5 mm in width and 2 cm in height was made through one side of this box. This box was placed in a plastic vat with 25 cm×20 cm×8 cm in height and therein 10 females and 10 males of Blattella germanica were released. The inside wall of the plastic vat used in this experiment was coated with talc for preventing the escape of cockroaches. The plastic vat contained feed and water and left at 25° C. After 7 days, Blattella germanica was observed and the death rate of the pest was calculated. This experiment was repeated two times.

The next test relates to Periplaneta fuliginosa. As to the kind of experiment: Experimental Example 16: treated filter paper in paper box, Periplaneta fuliginosa. The following applies: 0.1 ml of 5% (w/v) acetone solution on filter paper in paper box; after 7 days. Here is the method:
as §1, with “5% (w/v)” for “2.5% (w/v)”, “of 2” for “of 5”, “therein 3” for “therein 10”, “and 3” for “and 10”, “of Periplaneta fuliginosa” for “of Blattella germanica”, “days, Periplaneta fuliginosa” for “days, Blattella germanica”

In the case of `CCCCCCC(C#N)(C#N)CCC(F)(F)F` [(10)], the “death rate of the pest” value in the test on Blattalla germanica is reported as 100%.

Consider `N#CC(C#N)(CCC(F)(F)F)CC(F)(F)C(F)(F)F` [(22)], for which the “death rate of the pest” value with Blattalla germanica and with Blattella germanica [1] was 100% each time.

As for `C=CCCC(C#N)(C#N)CC(F)(F)C(F)(F)C(F)(F)C(F)F` [(73)], the “death rate of the pest” value in the test with Blattalla germanica is listed as 100%.

On to `N#CC(C#N)(CCC(F)(F)F)C[C@H]1CCC[C@@H](CF)C1` [(88)], for which the “death rate of the pest” value in the test on Blattalla germanica was 100%.

Consider `N#CC(C#N)(CC(F)(F)C(F)F)CC(F)(F)C(F)(F)C(F)(F)C(F)F` [(61)], for which the “death rate of the pest” value in the test with Blattalla germanica and in the test on Blattella germanica [1] was 100% each time.

For `CCCC(C#N)(C#N)CC(F)(F)C(F)(F)C(F)(F)C(F)F` [(82)], the “death rate of the pest” value with Blattalla germanica is reported as 100%.

As for `N#CC(C#N)(CCC(F)=C(F)F)CC(F)(F)C(F)(F)C(F)(F)C(F)F` [(75)], in the test on Blattalla germanica, the “death rate of the pest” value came to 100%.

As for `C#CCC(C#N)(C#N)CCC(F)(F)F` [(27)], the “death rate of the pest” value in the test with Blattalla germanica amounted to 100%.

Turning to `N#CC(C#N)(CCC(F)(F)F)CCC(F)(F)F` [(5)], the “death rate of the pest” value in the test with Blattalla germanica amounted to 100%.

Consider `N#CC(C#N)(CCC(F)(F)F)CCC(F)(Cl)C(F)(F)Cl` (stereo not drawn) [(54)], for which the “death rate of the pest” value with Blattalla germanica and in the test on Blattella germanica [1] was 100% in each case.

`N#CC(C#N)(CCC(F)(F)F)CC(F)(F)C(F)C(F)(F)F` (stereo not drawn) [(23)]: the “death rate of the pest” value in the test with Blattalla germanica is on record as 100%; in the test on Blattella germanica [2] it was 97.5%; in the test on Periplaneta fuliginosa, 91.7%; with Blattella germanica [1], 100%.

As for `N#CC(C#N)(CCC(F)(F)C(F)(F)F)CC(F)(F)C(F)(F)C(F)(F)C(F)F` [(68)], the “death rate of the pest” value in the test with Blattalla germanica and in the test with Blattella germanica [1] was 100% throughout.

With `N#CC(C#N)(CC(F)(F)C(F)(F)C(F)(F)F)CC(F)(F)C(F)(F)C(F)(F)C(F)F` [(79)], the “death rate of the pest” value in the test on Blattalla germanica and in the test with Blattella germanica [1] was 100% throughout.

As for `N#CC(C#N)(CCC(F)(F)F)CCC(F)(F)C(F)(F)F` [(29)], the “death rate of the pest” value with Blattalla germanica and with Blattella germanica [1] was 100% throughout.

As to `N#CC(C#N)(CCC(F)(F)F)CCC(F)(F)C(F)(F)Br` [(35)], the “death rate of the pest” value with Blattalla germanica and in the test with Blattella germanica [1] was 100% each time.

Regarding `CC(F)(F)CCC(C#N)(C#N)CC(F)(F)C(F)(F)C(F)(F)C(F)F` [(59)], the “death rate of the pest” value with Blattalla germanica and in the test with Blattella germanica [1] was 100% throughout.

For `N#CC(C#N)(CC(Cl)C(F)(F)F)CC(F)(F)C(F)(F)C(F)(F)C(F)F` (stereo not drawn) [(69)], the “death rate of the pest” value in the test on Blattalla germanica and with Blattella germanica [1] was 100% each time.

In the case of `N#CC(C#N)(CCCCCl)CCC(F)(F)F` [(3)], the “death rate of the pest” value with Blattalla germanica stood at 100%.

For the compound `N#CC(C#N)(CCCC(F)(F)F)CC(F)(F)C(F)(F)C(F)(F)C(F)F` [(66)], the “death rate of the pest” value in the test with Blattalla germanica and with Blattella germanica [1] was 100% in each case.

As to `N#CC(C#N)(CCC(F)(C(F)(F)F)C(F)(F)F)CCC(F)(C(F)(F)F)C(F)(F)F` [(56)], the “death rate of the pest” value with Blattalla germanica and in the test with Blattella germanica [1] was 100% in each case.

Turning to `N#CC(C#N)(CCC(F)(F)F)CCC(F)(C(F)(F)F)C(F)(F)F` [(36)], the “death rate of the pest” value in the test on Blattalla germanica and in the test on Blattella germanica [1] was 100% in each case.

Regarding `N#CC(C#N)(CCC(F)(F)F)CC(Cl)C(F)(F)F` (stereo not drawn) [(58)], the “death rate of the pest” value in the test with Blattalla germanica came out at 100%.

Regarding `N#CC(C#N)(CCF)CCC(F)(F)F` [(25)], the “death rate of the pest” value in the test with Blattalla germanica amounted to 100%.

As to `N#CC(C#N)(CCC(F)(F)F)CC(F)(F)C(F)(F)C(F)(F)C(F)(F)C(F)(F)C(F)F` [(32)], the “death rate of the pest” value in the test on Blattalla germanica was 100%.

As to `N#CC(C#N)(CCCCCF)CCC(F)(F)F` [(55)], the “death rate of the pest” value in the test with Blattalla germanica turned out to be 100%.

With `N#CC(C#N)(CCC(F)(F)F)CC1CC1(Cl)Cl` (stereo not drawn) [(4)], the “death rate of the pest” value with Blattalla germanica and in the test on Blattella germanica [1] was 100% throughout.

Consider `N#CC(C#N)(CCC(F)(F)F)CC(F)(F)F` [(21)], for which, in the test on Blattalla germanica, the “death rate of the pest” value was determined as 100%.

For the compound `N#CC(C#N)(CCCC(F)(F)F)CCC(F)(F)F` [(48)], the “death rate of the pest” value in the test on Blattalla germanica was found to be 100%.

Take `CC(F)(F)CCC(C#N)(C#N)CCC(F)(F)F` [(64)]: the “death rate of the pest” value with Blattalla germanica came out at 100%.

Consider `N#CC(C#N)(CC1CC1)CC(F)(F)C(F)(F)C(F)(F)C(F)F` [(72)], for which the “death rate of the pest” value in the test with Blattalla germanica is reported as 100%.

For `N#CC(C#N)(CCC(F)(F)F)CCC(F)(F)C(F)(F)C(F)(F)C(F)(F)F` [(38)], the “death rate of the pest” value in the test on Blattalla germanica and in the test on Blattella germanica [1] was 100% each time.

Regarding `CC(F)(F)CCCC(C#N)(C#N)CCC(F)(F)F` [(90)], the “death rate of the pest” value in the test with Blattella germanica [1] is listed as 100%.

In the case of `N#CC(C#N)(CCCF)CC(F)(F)C(F)(F)C(F)(F)C(F)F` [(74)], the “death rate of the pest” value in the test with Blattalla germanica is reported as 100%.

For `N#CC(C#N)(CCC(F)(Cl)C(F)(F)Cl)CC(F)(F)C(F)(F)C(F)(F)C(F)F` (stereo not drawn) [(67)], the “death rate of the pest” value with Blattalla germanica and in the test on Blattella germanica [1] was 100% in each case.

`C=CCC(C#N)(C#N)CC(F)(F)C(F)(F)C(F)(F)C(F)F` [(47)]: the “death rate of the pest” value in the test on Blattalla germanica is reported as 100%.

Consider `N#CC(C#N)(CCC(F)(F)F)CC1CCC(F)(F)CC1` [(83)], for which the “death rate of the pest” value in the test on Blattalla germanica and in the test on Blattella germanica [1] was 100% throughout.

As to `N#CC(C#N)(CCC(F)(F)F)CCC(F)(Cl)C(F)(F)Br` (stereo not drawn) [(30)], the “death rate of the pest” value with Blattalla germanica and in the test with Blattella germanica [1] was 100% in each case.

Regarding `N#CC(C#N)(CCC(F)(F)F)C[C@H]1CCC[C@@H](C(F)F)C1` [(87)], the “death rate of the pest” value in the test with Blattalla germanica was 100%.

With `N#CC(C#N)(CCCCC(F)F)CCC(F)(F)F` [(60)], the “death rate of the pest” value in the test with Blattalla germanica was determined as 100%.

Consider `N#CC(C#N)(CCC(F)(Cl)C(F)(F)Br)CC(F)(F)C(F)C(F)(F)F` (stereo not drawn) [(46)], for which the “death rate of the pest” value with Blattalla germanica and in the test with Blattella germanica [1] was 100% each time.

In the case of `N#CC(C#N)(CCCC(F)(F)C(F)(F)F)CCC(F)(F)F` [(89)], the “death rate of the pest” value in the test with Blattalla germanica and in the test on Blattella germanica [1] was 100% each time.

With `CCCCCC(C#N)(C#N)CCC(F)(F)F` [(9)], in the test on Blattalla germanica, the “death rate of the pest” value stood at 100%.

Take `N#CC(C#N)(CC(F)(F)C(F)F)CC(F)(F)C(F)F` [(50)]: in the test on Blattalla germanica, the “death rate of the pest” value turned out to be 100%.

For `N#CC(C#N)(CCC(F)=C(F)F)CCC(F)(F)F` [(17)], in the test with Blattalla germanica, the “death rate of the pest” value was 100%.

Take `N#CC(C#N)(CCC(F)(F)F)CC(F)(F)C(F)F` [(20)]: the “death rate of the pest” value in the test on Blattalla germanica and with Blattella germanica [1] was 100% each time.

With `N#CC(C#N)(CBr)CCC(F)(F)F` [(52)], the “death rate of the pest” value in the test on Blattalla germanica was found to be 100%.

As to `N#CC(C#N)(CC(Br)C(F)(F)F)CC(F)(F)C(F)(F)C(F)(F)C(F)F` (stereo not drawn) [(57)], in the test with Blattella germanica [1], the “death rate of the pest” value amounted to 100%.

In the case of `CCCCC(C#N)(C#N)CC(F)(F)C(F)(F)C(F)(F)C(F)F` [(80)], the “death rate of the pest” value in the test on Blattalla germanica is recorded as 100%.

For the compound `N#CC(C#N)(CCC(F)(F)C(F)(F)C(F)(F)F)CC(F)(F)C(F)(F)C(F)(F)C(F)F` [(71)], the “death rate of the pest” value in the test on Blattalla germanica and with Blattella germanica [1] was 100% each time.

`CCC(F)(F)CCC(C#N)(C#N)CCC(F)(F)F` [(70)]: the “death rate of the pest” value in the test with Blattella germanica [1] came to 100%.

For the compound `N#CC(C#N)(CCC1CCC(F)(F)C1)CCC(F)(F)F` (stereo not drawn) [(84)], the “death rate of the pest” value in the test on Blattella germanica [1] was 100%.

As to `N#CC(C#N)(CCC(F)(F)F)CCC(F)(F)C(F)(F)C(F)(F)F` [(37)], the “death rate of the pest” value with Blattalla germanica and in the test with Blattella germanica [1] was 100% in each case.

In the case of `N#CC(C#N)(CC(F)(F)C(F)C(F)(F)F)CC(F)(F)C(F)(F)C(F)(F)C(F)F` (stereo not drawn) [(81)], the “death rate of the pest” value in the test on Blattalla germanica and in the test with Blattella germanica [1] was 100% throughout.

Consider `CC(C)=CCC(C#N)(C#N)CC(F)(F)C(F)(F)C(F)(F)C(F)F` [(78)], for which the “death rate of the pest” value in the test on Blattalla germanica amounted to 100%.

On to `N#CC(C#N)(CC(F)(F)C(F)(F)F)CC(F)(F)C(F)(F)F` [(93)], for which the “death rate of the pest” value with Blattalla germanica was determined as 100%.
